The record followed here is US8609892B2 (Eli Lilly and Company, priority 2004, dated 2013).

For the assay, the target named is cloned human glucagon receptor (Homo sapiens (Human), UniProt P47871). Kind of assay: Glucagon Receptor (hGlucR) Binding Assay. As to conditions: I-125 glucagon competition, SPA, 293HEK membranes, Cheng-Prusoff.
Sequence of cloned human glucagon receptor (P47871 26-477): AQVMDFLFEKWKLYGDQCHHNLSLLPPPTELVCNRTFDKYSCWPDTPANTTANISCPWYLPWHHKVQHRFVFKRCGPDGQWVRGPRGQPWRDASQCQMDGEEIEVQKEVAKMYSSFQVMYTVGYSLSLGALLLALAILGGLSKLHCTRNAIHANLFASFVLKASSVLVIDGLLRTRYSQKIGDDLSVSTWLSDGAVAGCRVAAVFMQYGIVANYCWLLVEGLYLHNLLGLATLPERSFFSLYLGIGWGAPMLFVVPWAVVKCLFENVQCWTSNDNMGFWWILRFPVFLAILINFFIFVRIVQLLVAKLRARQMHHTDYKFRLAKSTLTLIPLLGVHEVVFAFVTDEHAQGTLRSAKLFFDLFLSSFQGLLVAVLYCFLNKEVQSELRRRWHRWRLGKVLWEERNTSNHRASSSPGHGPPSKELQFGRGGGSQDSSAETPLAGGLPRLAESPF

Experimental: This plasmid DNA was transfected into 293 HEK cells and selected with 200 ug/mL Hygromycin.
Crude plasma membranes are prepared using cells from suspension culture. The cells are lysed on ice in hypotonic buffer containing 25 mM Tris HCL, pH 7.5, 1 mM MgCl2, DNAse1, 20 u/mL, and Roche Complete Inhibitors-without EDTA. The cell suspension is homogenized with a glass dounce homogenizer using a Teflon pestle for 25 strokes. The homogenate is centrifuged at 4 degrees C. at 1800×g for 15 mins. The supernate is collected and the pellet is resuspended in hypotonic buffer and rehomogenized. The mixture is centrifuged at 1800×g for 15 mins. The second supernate is combined with the first supernate. The combined supernates are recentrifuged at 1800×g for 15 mins to clarify. The clarified supernate is transferred to high speed tubes and centrifuged at 25000×g for 30 minutes at 4 degrees C. The membrane pellet is resuspended in homogenization buffer and stored as frozen aliquots at −80 degree C. freezer until needed.
The specific activity is 2200 Ci/mmol.
The binding buffer contains 25 mM Hepes, pH 7.4, 2.5 mM CaCl2, 1 mM MgCl2, 0.1% fatty acid free BSA, (ICN), 0.003% tween-20, and Roche Complete Inhibitors without EDTA. […] Test compounds are dissolved in DMSO and serially diluted in DMSO. […] Plates are read with a MicroBeta after 14 hours of settling time at room temp. […]

As for `Cc1ccc(-c2ccc(SC(CC(C)C)c3ccc(C(=O)NCCC(=O)O)cc3)cc2)cc1C` (centres unmarked), affinity was put at a Ki of 265 nM.
Then `CCCC(Oc1ccc(-c2ccc(CC(C)C)cc2)nc1)c1ccc(C(=O)NCCC(=O)O)cc1` (centres unmarked), with 254 nM.
